In this assay the test system is TXA2. The experiment in a line: rabbit aortal strip model, test (a). The class given is cell-based. The settings on record: agonist TXA2 or U46619. The protocol:
(a) The rabbit aortal strip model devised by Piper and Vane (Nature, 1969, 223, 29-35) using as agonist a freshly prepared sample of TXA2, generated by addition of arachidonic acid (25 μg) to citrated, platelet rich rabbit plasma (250 μl) and allowing the mixture to aggregate fully over 90 seconds before use; alternatively the TXA2 mimetic agent known as U46619 (described by R L Jones et alia, in "Chemistry, Biochemistry and Pharmacological Activity of Prostanoids" edited by S M Roberts and F Scheinmann, at page 211, Pergamon Press, 1979) may be used as the agonist;

Turning to `CC1(C)O[C@@H](c2ccccc2O)[C@@H](C/C=C\CCCC(=O)O)CS1` (relative stereo) [Example 1, 5(Z)-7-(6-o-hydroxyphenyl-2,2-dimethyl-1,3-oxathian-cis-5-yl)heptenoic acid], the “pA2 in test (a)” value is given as 7.42.
